According to ChEMBL document CHEMBL5537162, “Development of Antibacterial Peptides with Membrane Disruption and Folate Pathway Inhibitory Activities against Methicillin-Resistant Staphylococcus aureus” (J Med Chem, 2024):
pKd: −log10 of the molar value. Active and inactive are the calls of the source. The rule behind the calls is not given here.

Experiments:
[1] = test system: Staphylococcus aureus; assay: Antibacterial activity against methicillin-resistant Staphylococcus aureus 19047 assessed as bacterial growth inhibition incubated for 24 hrs by CLSI based micro-broth dilution assay; assay type: functional
[2] = target: T1, Monofunctional C1-tetrahydrofolate synthase, mitochondrial (Homo sapiens, UniProt Q6UB35); assay: Binding affinity to FTHFS (unknown origin) expressed in Escherichia coli BL21 (DE3) using IPTG as […] assessed as dissociation constant by MST assay
T1 sequence (Q6UB35 whole entry): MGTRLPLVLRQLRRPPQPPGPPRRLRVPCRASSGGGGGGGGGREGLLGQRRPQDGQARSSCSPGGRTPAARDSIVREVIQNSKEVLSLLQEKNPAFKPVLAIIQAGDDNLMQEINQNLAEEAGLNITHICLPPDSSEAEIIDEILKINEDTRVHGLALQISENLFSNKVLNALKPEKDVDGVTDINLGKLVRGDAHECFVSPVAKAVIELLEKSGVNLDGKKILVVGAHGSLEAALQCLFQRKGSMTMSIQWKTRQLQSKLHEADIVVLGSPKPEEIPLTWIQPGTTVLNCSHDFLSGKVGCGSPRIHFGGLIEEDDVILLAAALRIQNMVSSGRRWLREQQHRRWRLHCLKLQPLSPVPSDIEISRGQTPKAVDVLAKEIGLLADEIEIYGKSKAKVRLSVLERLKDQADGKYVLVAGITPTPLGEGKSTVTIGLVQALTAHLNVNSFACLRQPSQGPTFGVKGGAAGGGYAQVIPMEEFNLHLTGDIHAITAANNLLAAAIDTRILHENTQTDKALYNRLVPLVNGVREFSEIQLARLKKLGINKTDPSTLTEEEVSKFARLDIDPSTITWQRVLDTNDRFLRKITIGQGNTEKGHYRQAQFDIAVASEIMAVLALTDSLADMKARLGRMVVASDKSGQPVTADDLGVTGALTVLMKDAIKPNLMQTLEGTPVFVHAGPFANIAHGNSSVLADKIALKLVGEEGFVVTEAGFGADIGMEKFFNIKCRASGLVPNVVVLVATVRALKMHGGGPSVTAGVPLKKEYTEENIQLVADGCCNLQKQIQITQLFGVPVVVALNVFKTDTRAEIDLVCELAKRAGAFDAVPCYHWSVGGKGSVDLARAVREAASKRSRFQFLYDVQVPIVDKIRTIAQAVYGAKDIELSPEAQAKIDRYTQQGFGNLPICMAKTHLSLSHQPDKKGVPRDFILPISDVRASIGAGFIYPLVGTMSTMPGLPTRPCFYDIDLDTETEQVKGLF

[3] = Stability in methicillin-resistant Staphylococcus aureus supernatants measured for 12 hrs by RP-HPLC analysis; assay type: physicochemical; settings: read-out: Stability
[4] = test system: Staphylococcus aureus; assay: Antibacterial activity against methicillin-resistant Staphylococcus aureus 19423 assessed as bacterial growth inhibition incubated for 24 hrs by CLSI based micro-broth dilution assay; assay type: functional
[5] = test system: Porphyromonas gingivalis; assay: Antibacterial activity against Porphyromonas gingivalis assessed as bacterial growth inhibition incubated for 24 hrs by CLSI based micro-broth dilution assay; assay type: functional
[6] = test system: Staphylococcus aureus; assay: Antibacterial activity against methicillin-resistant Staphylococcus aureus 18567 assessed as bacterial growth inhibition incubated for 24 hrs by CLSI based micro-broth dilution assay; assay type: functional
[7] = test system: Staphylococcus aureus; assay: Antibacterial activity against Staphylococcus aureus assessed as reduction in bacterial growth in presence of PABA; assay type: functional, organism-based
[8] = test system: Staphylococcus aureus; assay: Antibacterial activity against Methicillin-resistant Staphylococcus aureus infected in ICR mouse skin infection model assessed as reduction in bacterial content at 40 mg/kg, sc measured upto 10 days; assay type: functional, organism-based; settings: time <= 10.0 day
[9] = Stability in methicillin-resistant Staphylococcus aureus supernatants measured for 24 hrs by RP-HPLC analysis; assay type: physicochemical
[10] = test system: Staphylococcus aureus; assay: Antibacterial activity against Staphylococcus aureus 6538 assessed as bacterial growth inhibition incubated for 24 hrs by CLSI based micro-broth dilution assay; assay type: functional
[11] = test system: Staphylococcus aureus; assay: Antibacterial activity against Methicillin-resistant Staphylococcus aureus infected in ICR mouse skin infection model assessed as reduction in skin abscess volume at 40 mg/kg, sc measured upto 10 days; assay type: functional, organism-based; settings: time <= 10.0 day
[12] = test system: Staphylococcus aureus; assay: Antibacterial activity against Methicillin-resistant Staphylococcus aureus infected in ICR mouse skin infection model assessed as reduction in inflammatory infiltration at 40 mg/kg, sc by H and E staining based microscopic analysis; assay type: functional, organism-based

Row | Substance | MIC [1] [µM] | pKd [2] | remaining at 12 h [3] [%] | MIC [4] [µM] | MIC [5] [µM] | MIC [6] [µM] | Activity [7] | Activity [8] | Stability [9] | MIC [10] [µM] | Activity [11] | Activity [12]
1 | H-LARVARRVIRFIRRAW-NH2 | 3 | 5.65 | 50 | 6 | 12 | 3 | Active | Active | Stable | 3 | Active | Active
2 | H-RRRLARRLIFFIRRAW-NH2 | 6 | 5.43 | 25 | 6 | 12 | 6 | Active | Active | Stable | 3 | Active | Active
